Assay results taken from ChEMBL document CHEMBL1122822 (1985).
Each block holds one molecule with its values, some of them ahead of it.

Assays:
MCF7 [1] = assay: Effect of compound with 10e-8 M estradiol on the growth of MCF-7 cells at a concentration of 10 e-6 M, percentage of control value being 32; assay type: functional, Homo sapiens
MCF7 [2] = assay: Effect of compound on the growth of MCF-7 cells at a concentration of 10 e-6 M Experiment 2, percentage of control value being 13; assay type: functional, Homo sapiens
MCF7 [3] = assay: Effect of compound with 10e-8 M estradiol on the growth of MCF-7 cells at a concentration 10 e-7 M, percentage of control value being 85; assay type: functional, Homo sapiens
MCF7 [4] = assay: Effect of compound on the growth of MCF-7 cells at a concentration of 10 e-7 M Experiment 2, percentage of control value being 15; assay type: functional, Homo sapiens
MCF7 [5] = assay: Effect of compound on the growth of MCF-7 cells at a concentration of 10 e-6 M, percentage of control value being 23; assay type: functional, Homo sapiens
MCF7 [6] = assay: Effect on the growth of MCF-7 cells at a concentration of 10 e-7 M, percentage of control value being 36; assay type: functional, Homo sapiens
MCF7 [7] = assay: Effect of compound with 10e-8 M estradiol on the growth of MCF-7 cells at a concentration 10 e-7 M, percentage of control value being 12; assay type: functional, Homo sapiens
MCF7 [8] = assay: Effect on the growth of MCF-7 cells at a concentration of,10 e-7 M, percentage of control value being 20; assay type: functional, Homo sapiens
MCF7 [9] = assay: Effect on the growth of MCF-7 cells at a concentration of,10 e-7 M, percentage of control value being 87; assay type: functional, Homo sapiens
MCF7 [10] = assay: Effect of compound on the growth of MCF-7 cells at a concentration of,10 e-6 M, percentage of control value being 85; assay type: functional, Homo sapiens
MCF7 [11] = assay: Effect of compound with 10e-8 M estradiol on the growth of MCF-7 cells at a concentration 10 e-7 M, percentage of control value being 77; assay type: functional, Homo sapiens
MCF7 [12] = assay: Effect of compound with 10e-8 M estradiol on the growth of MCF-7 cells at a concentration of,10 e-6 M, percentage of control value being 74; assay type: functional, Homo sapiens
MCF7 [13] = assay: Effect of compound with 10e-8 M estradiol on the growth of MCF-7 cells at a concentration 10 e-7 M, percentage of control value being 13; assay type: functional, Homo sapiens
MCF7 [14] = assay: Effect on the growth of MCF-7 cells at a concentration of,10 e-7 M, percentage of control value being 80; assay type: functional, Homo sapiens
[15] = target: Estrogen receptor (Rattus norvegicus) (UniProt P06211+Q62986)
Description: In vitro relative binding affinity for rat uterine estrogen receptor compared to [3H]estradiol

MCF7 [16] = assay: Effect on the growth of MCF-7 cells at a concentration of 10 e-7 M, percentage of control value being 67; assay type: functional, Homo sapiens
MCF7 [17] = assay: Effect of compound with 10e-8 M estradiol on the growth of MCF-7 cells at a concentration of 10 e-6 M, percentage of control value being 68; assay type: functional, Homo sapiens
MCF7 [18] = assay: Effect of compound with 10e-8 M estradiol on the growth of MCF-7 cells at a concentration 10 e-7 M, percentage of control value being 90; assay type: functional, Homo sapiens
MCF7 [19] = assay: Effect of compound on the growth of MCF-7 cells at a concentration of 10 e-6 M, percentage of control value being 35; assay type: functional, Homo sapiens
MCF7 [20] = assay: Effect of compound on the growth of MCF-7 cells at a concentration of,10 e-6 M, percentage of control value being 63; assay type: functional, Homo sapiens
MCF7 [21] = assay: Effect of compound with 10e-8 M estradiol on the growth of MCF-7 cells at a concentration of,10 e-6 M, percentage of control value being 90; assay type: functional, Homo sapiens
MCF7 [22] = assay: Effect on the growth of MCF-7 cells at a concentration of,10 e-7 M, percentage of control value being 84; assay type: functional, Homo sapiens
MCF7 [23] = assay: Effect of compound with 10e-8 M estradiol on the growth of MCF-7 cells at a concentration 10 e-7 M, percentage of control value being 91; assay type: functional, Homo sapiens

SMILES: CCC(=C(c1ccc(O)cc1)c1ccc(OCCN(C)C)cc1)c1ccccc1
DNA (MCF7 [1]): 5.4 µg
DNA (MCF7 [2]): 1.1 µg
DNA (MCF7 [3]): 14.2 µg
DNA (MCF7 [4]): 1.2 µg
DNA (MCF7 [5]): 3.8 µg
DNA (MCF7 [6]): 6 µg

SMILES: CC/C(=C(/c1ccc(OCCN(C)C)cc1)c1ccc(O)cc1C)c1ccccc1
DNA (MCF7 [7]): 1 µg
DNA (MCF7 [8]): 1.6 µg

SMILES: CC/C(=C(/c1ccc(OCCN(C)C)cc1)c1ccccc1O)c1ccccc1
DNA (MCF7 [9]): 14.6 µg
DNA (MCF7 [10]): 14.2 µg
DNA (MCF7 [11]): 12.8 µg
DNA (MCF7 [12]): 12.4 µg

SMILES: CC/C(=C(/c1ccc(OCCN(C)C)cc1)c1ccc(O)cc1O)c1ccccc1
DNA (MCF7 [13]): 1.1 µg
DNA (MCF7 [14]): 6.6 µg

IC50 [15]: 30 nM
SMILES: CC/C(=C(\c1ccccc1)c1ccc(OCCN(C)C)cc1)c1cccc(O)c1

SMILES: CC/C(=C(/c1ccc(OCCN(C)C)cc1)c1cccc(O)c1)c1ccccc1 [DROLOXIFENE]
DNA (MCF7 [16]): 11.2 µg
DNA (MCF7 [17]): 11.3 µg
DNA (MCF7 [18]): 15 µg
DNA (MCF7 [19]): 5.9 µg

SMILES: CC/C(=C(\c1ccccc1)c1ccc(OCCN(C)C)cc1)c1ccccc1 [TAMOXIFEN]
DNA (MCF7 [20]): 10.6 µg
DNA (MCF7 [21]): 15.1 µg
DNA (MCF7 [22]): 14 µg
DNA (MCF7 [23]): 15.2 µg
